Assay results: patent publication US12637469B2, “1H-pyrazole derivative and application thereof as dual target inhibitor of Syk and VEGFR2” (Ocumension Therapeutics (Suzhou) Co., Ltd., priority 2020, dated 2026)

What was measured:
[1] = biological target: VEGFR2 kinase (KDR enzyme) (Homo sapiens, UniProt P35968); assay: In vitro inhibitory effect on VEGFR2 kinase (ADP-Glo enzymatic experiment); assay type: biochemical; conditions: read-out: IC50 (nM) for inhibition of VEFGR2 enzyme
Description: The VEGFR2 kinase assay kit is intended for measuring VEGFR2 kinase activity using Kinase-Glo®MAX as a detection reagent, and compound screening and analysis were conducted using the IC50 value of the compound as an indicator.
The ADP-GLO™ Kinase Assay is an analytical reaction in which a luminescent kinase is used to determine the adenosine diphosphate formed by the kinase; ADP is converted to ATP, i.e., an optical signal is generated by Ultra-Glo™ luciferase. The optical signal is positively correlated with ADP quantity and kinase activity. This assay is ideal for determining the activity of the compound, making it ideal for primary screening and kinase selectivity analysis. The ADP-Glo™ Kinase Assay can be used to monitor the activity of virtually any ADP-producing enzyme such as a kinase orATPase: • 1) The enzyme, substrate, ATP and inhibitor were diluted in a kinase buffer; • 2) 384-well plate: 1 μL of inhibitor or (5% dimethyl sulfoxide solution), 2 μL of KDR enzyme, 2 μL of matrix/ATP mixture; • 3) the mixture was incubated at room temperature for 60 minutes; • 4) 5 μL of ADP-GLO™ reagent was added; • 5) the mixture was incubated for 40 minutes at room temperature; • 6) 10 μL of kinase detection reagent was added; • 7) the mixture was incubated at room temperature for 30 minutes; • 8) the luminescence was recorded (integration time 0.5-1 sec). The data was shown in relative light units (rlu), which was directly related to the amount of […]. There was correlation between the percent of the conversion from ATP to ADP for each kinase amount and the corresponding signal-to-background ratio. • 9) Data analysis: (a) KDR enzyme was titrated with 50 μM of ATP, and the luminescent signal produced by KDR enzyme was shown; (b) staurosporine dose response was generated with 1.5 ng of KDR to determine the IC50 value of the inhibitor.

CYP1A2 = biological target: T1, CYP1A2 (Homo sapiens, UniProt P05177); assay: Inhibition of cytochrome P450 enzymes in human liver microsomes (LC-MS/MS); assay type: in vitro ADME
T1 construct: human liver microsome working solution was prepared; from tissue; host or cells: human liver microsomes
Description: (§1) In order to investigate the activity of the compound on human liver microsomal CYP450 enzyme, Liquid Chromatography-Mass Spectrometry/Mass Spectrometry (LC-MS/MS) method was used in this study to determine the inhibitory effect of compound 1 on five main subtypes (CYP1A2, 2C9, 2C19, 2D6, 3A4) of human hepatocyte CYP450 enzyme, and compound screening and analysis were conducted using IC50 value as the indicator.
(§2) • 1) A test compound and a standard inhibitor working solution (100×) were prepared; • 2) microsomes were taken out of a −80° C. freezer, thawed on ice, labeled with the date, and put back in the freezer immediately after use; • 3) 20 microliters of matrix solution was added to the corresponding wells; • 4) 20 microliters of phosphate buffered saline was added to the blank wells; • 5) 2 microliters of the test compound and positive control working solution were added to the corresponding wells; • 6) 2 microliters of solvent was added to each of the inhibitor-free wells and the blank wells; • 7) human liver microsome working solution was prepared; • 8) 158 microliters of HLM working solution was added to all wells of the incubation plate; • 9) the plate was heated in a 37° C. water bath for about 10 minutes; • 10) NADPH cofactor solution was prepared; • 11) 20 microliters of NADPH cofactor was added to all of the incubation wells; • 12) all CYPs were subjected to mixed culture in a 37° C. water bath for 10 minutes; • 13) at a certain point in time, the reaction was stopped by adding 400 microliters of cold solution (200 ng/mL of tolbutamide in acetonitrile and 200 ng/mL of Labetalol in acetonitrile); • 14) the samples were centrifuged at 4000 rpm for 20 minutes to precipitate proteins; • 15) 200 microliters of supernatant was transferred into 100 microliters of high performance liquid chromatography water, and shaked for 10 minutes; • 16) LC/MS/MS analysis was started.

CYP2D6 = biological target: T2, CYP2D6 (Homo sapiens, UniProt P10635); assay: as above; assay type: in vitro ADME
T2 construct: human liver microsome working solution was prepared; from tissue; host or cells: human liver microsomes
Description: as §1, §2

CYP2C9 = biological target: T3, CYP2C9 (Homo sapiens, UniProt P11712); assay: as above; assay type: in vitro ADME
T3 construct: human liver microsome working solution was prepared; from tissue; host or cells: human liver microsomes
Description: as §1, §2

CYP3A4 = biological target: T4, CYP3A4 (Homo sapiens, UniProt P08684); assay: as above; assay type: in vitro ADME
T4 construct: human liver microsome working solution was prepared; from tissue; host or cells: human liver microsomes
Description: as §1, §2

T4 sequence (P08684 whole entry): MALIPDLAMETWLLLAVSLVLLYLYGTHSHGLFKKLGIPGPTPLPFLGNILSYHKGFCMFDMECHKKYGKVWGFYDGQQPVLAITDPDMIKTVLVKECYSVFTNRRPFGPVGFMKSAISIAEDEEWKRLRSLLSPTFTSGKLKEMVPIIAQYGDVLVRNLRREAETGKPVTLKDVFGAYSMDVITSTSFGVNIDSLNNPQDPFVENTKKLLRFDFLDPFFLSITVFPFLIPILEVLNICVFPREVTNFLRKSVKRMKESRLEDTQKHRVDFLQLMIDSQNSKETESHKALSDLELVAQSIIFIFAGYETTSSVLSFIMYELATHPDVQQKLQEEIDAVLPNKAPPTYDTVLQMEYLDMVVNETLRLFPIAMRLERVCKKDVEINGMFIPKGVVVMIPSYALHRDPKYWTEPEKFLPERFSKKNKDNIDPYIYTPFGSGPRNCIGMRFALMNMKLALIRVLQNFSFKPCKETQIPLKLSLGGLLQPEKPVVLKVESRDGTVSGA
VEGFR2 kinase (KDR enzyme), sequence (P35968 20-1356, species assumed): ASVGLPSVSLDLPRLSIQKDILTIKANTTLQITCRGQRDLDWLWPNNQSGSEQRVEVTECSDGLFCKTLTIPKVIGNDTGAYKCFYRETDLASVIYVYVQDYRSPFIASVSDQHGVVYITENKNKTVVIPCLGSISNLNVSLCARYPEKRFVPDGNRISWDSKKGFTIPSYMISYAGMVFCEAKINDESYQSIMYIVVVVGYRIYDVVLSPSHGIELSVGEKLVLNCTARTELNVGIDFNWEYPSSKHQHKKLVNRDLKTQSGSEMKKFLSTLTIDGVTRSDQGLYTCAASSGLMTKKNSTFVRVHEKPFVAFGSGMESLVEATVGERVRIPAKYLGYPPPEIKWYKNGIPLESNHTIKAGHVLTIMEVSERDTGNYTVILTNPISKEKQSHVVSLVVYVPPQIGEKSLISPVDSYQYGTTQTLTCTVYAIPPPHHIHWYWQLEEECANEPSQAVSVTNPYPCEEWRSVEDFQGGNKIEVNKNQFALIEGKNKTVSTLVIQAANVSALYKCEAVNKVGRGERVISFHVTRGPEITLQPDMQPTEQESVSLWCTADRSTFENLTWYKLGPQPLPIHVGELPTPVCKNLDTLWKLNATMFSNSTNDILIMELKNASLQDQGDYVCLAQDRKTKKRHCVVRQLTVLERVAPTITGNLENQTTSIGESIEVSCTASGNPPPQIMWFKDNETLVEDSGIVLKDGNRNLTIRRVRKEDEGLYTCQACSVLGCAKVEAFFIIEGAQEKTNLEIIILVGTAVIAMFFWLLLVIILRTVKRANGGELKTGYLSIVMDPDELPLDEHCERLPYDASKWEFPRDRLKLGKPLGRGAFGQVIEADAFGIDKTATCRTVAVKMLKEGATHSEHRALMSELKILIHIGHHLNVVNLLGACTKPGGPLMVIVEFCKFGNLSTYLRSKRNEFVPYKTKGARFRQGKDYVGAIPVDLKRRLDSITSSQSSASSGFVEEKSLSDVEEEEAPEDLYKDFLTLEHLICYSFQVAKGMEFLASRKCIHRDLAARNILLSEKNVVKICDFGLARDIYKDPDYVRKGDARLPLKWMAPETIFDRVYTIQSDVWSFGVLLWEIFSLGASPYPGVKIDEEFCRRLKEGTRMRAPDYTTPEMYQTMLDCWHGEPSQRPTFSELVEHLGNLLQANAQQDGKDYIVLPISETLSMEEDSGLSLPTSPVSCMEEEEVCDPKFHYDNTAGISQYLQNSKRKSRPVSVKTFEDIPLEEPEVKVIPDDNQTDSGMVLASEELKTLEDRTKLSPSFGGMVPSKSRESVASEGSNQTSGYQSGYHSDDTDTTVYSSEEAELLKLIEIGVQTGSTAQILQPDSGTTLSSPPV
T3 sequence (P11712 whole entry): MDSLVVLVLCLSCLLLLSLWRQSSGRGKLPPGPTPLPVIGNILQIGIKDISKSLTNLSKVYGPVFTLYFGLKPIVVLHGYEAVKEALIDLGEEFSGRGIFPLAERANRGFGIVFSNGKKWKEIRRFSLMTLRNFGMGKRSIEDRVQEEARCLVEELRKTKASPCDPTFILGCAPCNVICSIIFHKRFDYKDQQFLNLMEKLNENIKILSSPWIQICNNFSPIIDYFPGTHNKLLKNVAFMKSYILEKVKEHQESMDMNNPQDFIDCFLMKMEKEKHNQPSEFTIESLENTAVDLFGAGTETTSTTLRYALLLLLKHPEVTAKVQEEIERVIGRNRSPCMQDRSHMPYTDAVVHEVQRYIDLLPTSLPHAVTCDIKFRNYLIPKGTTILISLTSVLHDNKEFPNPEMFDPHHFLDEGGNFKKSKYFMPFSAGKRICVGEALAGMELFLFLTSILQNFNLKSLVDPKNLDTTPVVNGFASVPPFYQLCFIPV
T1 sequence (P05177 whole entry): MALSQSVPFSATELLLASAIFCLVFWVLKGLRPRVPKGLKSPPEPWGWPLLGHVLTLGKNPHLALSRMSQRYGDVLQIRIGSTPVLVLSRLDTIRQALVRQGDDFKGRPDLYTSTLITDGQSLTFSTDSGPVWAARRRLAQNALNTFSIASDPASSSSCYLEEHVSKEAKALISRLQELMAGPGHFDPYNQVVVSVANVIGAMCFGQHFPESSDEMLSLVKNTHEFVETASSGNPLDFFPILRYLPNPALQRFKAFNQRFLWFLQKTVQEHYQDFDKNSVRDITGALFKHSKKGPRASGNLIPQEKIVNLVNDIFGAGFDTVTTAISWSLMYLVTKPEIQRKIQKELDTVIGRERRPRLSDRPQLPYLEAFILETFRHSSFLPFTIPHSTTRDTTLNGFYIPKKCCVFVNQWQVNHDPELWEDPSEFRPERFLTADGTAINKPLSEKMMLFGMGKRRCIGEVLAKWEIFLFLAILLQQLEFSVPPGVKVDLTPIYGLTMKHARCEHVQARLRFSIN
T2 sequence (P10635 whole entry): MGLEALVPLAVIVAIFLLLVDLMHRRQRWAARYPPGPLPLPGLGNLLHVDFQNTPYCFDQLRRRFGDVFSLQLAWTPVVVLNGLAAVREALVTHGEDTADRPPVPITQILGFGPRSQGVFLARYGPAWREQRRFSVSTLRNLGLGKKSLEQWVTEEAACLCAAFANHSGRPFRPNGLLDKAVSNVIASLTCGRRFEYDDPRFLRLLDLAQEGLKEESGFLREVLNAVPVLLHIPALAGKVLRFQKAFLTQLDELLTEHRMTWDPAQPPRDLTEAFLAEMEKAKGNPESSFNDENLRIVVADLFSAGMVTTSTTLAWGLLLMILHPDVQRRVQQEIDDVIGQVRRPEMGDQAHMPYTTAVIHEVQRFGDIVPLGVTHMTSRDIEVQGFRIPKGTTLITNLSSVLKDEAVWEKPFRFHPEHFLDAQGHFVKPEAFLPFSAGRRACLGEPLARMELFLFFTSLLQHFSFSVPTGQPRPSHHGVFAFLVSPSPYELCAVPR

IC50 [1]: 23 nM | IC50 (CYP1A2): > 50 nM | IC50 (CYP2D6): > 50000 nM | IC50 (CYP2C9): > 50 nM | IC50 (CYP3A4): > 50 nM
Structure (SMILES): c1cn2c(n1)c(Nc1ccc(N3CCOCC3)cc1)nc1ccc(-c3cn[nH]c3)cc12 [Compound 1]
